# Experimental data published in the supplement of paper PMC10307832.
# Assays:
# Test in all cases: relative viability (nuclei count vs DMSO), 5 days (fraction); higher = more cells survive
# NCI-H358 = tested on: NCI-H358
# How it was run: (§1)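 Relative viability was taken as the ratio of nuclei in treated wells to nuclei in vehicle wells. Lung cancer cell lines in 1536-well plates received compounds by pin tool one day after seeding, either one drug alone or a fixed anchor-drug dose plus five library-drug doses (not always all listed) in √10 steps. Nuclei were counted on 4× images after 5 days of treatment, and values are medians of duplicate plates.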
# PC-14 = tested on: PC-14
# How it was run: as §1
# EPLC-272H = tested on: EPLC-272H
# How it was run: as §1
# ABC-1 = tested on: ABC-1
# How it was run: as §1
# NCI-H522 = tested on: NCI-H522
# How it was run: as §1
# NCI-H1915 = tested on: NCI-H1915
# How it was run: as §1
# NCI-H460 = tested on: NCI-H460
# How it was run: as §1
# NCI-H2085 = tested on: NCI-H2085
# How it was run: as §1
# NCI-H2342 = tested on: NCI-H2342
# How it was run: as §1
# NCI-H2009 = tested on: NCI-H2009
# How it was run: as §1
# HCC-78 = tested on: HCC-78
# How it was run: as §1
# NCI-H650 = tested on: NCI-H650
# How it was run: as §1
structure (smiles),measurement,setting,value
COc1cc(N2CCC(C(N)=O)CC2)ccc1Nc1nc(N)c(Cl)c(Nc2ccccc2S(=O)(=O)C(C)C)n1 [HG-5-88-01] + O=C(c1cc(Cc2n[nH]c(=O)c3ccccc23)ccc1F)N1CCN(C(=O)C2CC2)CC1 [Olaparib] (partner 8 µM),relative viability,NCI-H358; first compound 0.04 µM,0.569
same,relative viability,NCI-H358; first compound 0.1265 µM,0.568
same,relative viability,NCI-H358; first compound 0.4 µM,0.545
same,relative viability,NCI-H358; first compound 1.265 µM,0.242
same,relative viability,NCI-H358; first compound 4 µM,0.466
same,relative viability,PC-14; first compound 0.04 µM,0.257
same,relative viability,PC-14; first compound 0.1265 µM,0.339
same,relative viability,PC-14; first compound 0.4 µM,0.321
same,relative viability,PC-14; first compound 1.265 µM,0.307
same,relative viability,PC-14; first compound 4 µM,0.0752
same,relative viability,EPLC-272H; first compound 0.04 µM,0.976
same,relative viability,EPLC-272H; first compound 0.1265 µM,0.785
same,relative viability,EPLC-272H; first compound 0.4 µM,0.959
same,relative viability,EPLC-272H; first compound 1.265 µM,0.495
same,relative viability,EPLC-272H; first compound 4 µM,0.0585
same,relative viability,ABC-1; first compound 0.04 µM,1
same,relative viability,ABC-1; first compound 0.1265 µM,0.494
same,relative viability,ABC-1; first compound 0.4 µM,0.688
same,relative viability,ABC-1; first compound 1.265 µM,0.686
same,relative viability,ABC-1; first compound 4 µM,0.589
same,relative viability,NCI-H522; first compound 0.04 µM,0.724
same,relative viability,NCI-H522; first compound 0.1265 µM,0.665
same,relative viability,NCI-H522; first compound 0.4 µM,0.761
same,relative viability,NCI-H522; first compound 1.265 µM,0.574
same,relative viability,NCI-H522; first compound 4 µM,0.594
same,relative viability,NCI-H1915; first compound 0.04 µM,0.259
same,relative viability,NCI-H1915; first compound 0.1265 µM,0.25
same,relative viability,NCI-H1915; first compound 0.4 µM,0.304
same,relative viability,NCI-H1915; first compound 1.265 µM,0.266
same,relative viability,NCI-H1915; first compound 4 µM,0.248
same,relative viability,NCI-H460; first compound 0.04 µM,0.415
same,relative viability,NCI-H460; first compound 0.1265 µM,0.498
same,relative viability,NCI-H460; first compound 0.4 µM,0.388
same,relative viability,NCI-H460; first compound 1.265 µM,0.356
same,relative viability,NCI-H460; first compound 4 µM,0.503
same,relative viability,NCI-H2085; first compound 0.04 µM,0.853
same,relative viability,NCI-H2085; first compound 0.1265 µM,0.753
same,relative viability,NCI-H2085; first compound 0.4 µM,0.833
same,relative viability,NCI-H2085; first compound 1.265 µM,0.765
same,relative viability,NCI-H2085; first compound 4 µM,0.871
same,relative viability,NCI-H2342; first compound 0.04 µM,0.449
same,relative viability,NCI-H2342; first compound 0.1265 µM,0.538
same,relative viability,NCI-H2342; first compound 0.4 µM,0.473
same,relative viability,NCI-H2342; first compound 4 µM,0.474
same,relative viability,NCI-H2009; first compound 0.04 µM,0.684
same,relative viability,NCI-H2009; first compound 0.1265 µM,0.651
same,relative viability,NCI-H2009; first compound 0.4 µM,0.687
same,relative viability,NCI-H2009; first compound 1.265 µM,0.685
same,relative viability,NCI-H2009; first compound 4 µM,0.684
same,relative viability,HCC-78; first compound 0.04 µM,0.868
same,relative viability,HCC-78; first compound 0.1265 µM,0.664
same,relative viability,HCC-78; first compound 0.4 µM,0.511
same,relative viability,HCC-78; first compound 1.265 µM,0.302
same,relative viability,HCC-78; first compound 4 µM,0.422
same,relative viability,NCI-H650; first compound 0.04 µM,0.423
same,relative viability,NCI-H650; first compound 0.1265 µM,0.366
same,relative viability,NCI-H650; first compound 0.4 µM,0.408
same,relative viability,NCI-H650; first compound 1.265 µM,0.321
same,relative viability,NCI-H650; first compound 4 µM,0.239
